Reference: publication PMC12397098, “3-Monothiopomalidomide, a new immunomodulatory imide drug (IMiD), blunts inflammation and mitigates ischemic stroke in the rat” (GeroScience, 2025)

What was measured:
[1] = test system: human PBMCs; assay: LDH in media of LPS-challenged human PBMCs (cellular toxicity); format: cell-based; conditions: 10 ng/ml LPS, 24 h, 3-MP 0 to 30 μM, vs LPS alone
Experimental: Human peripheral blood mononuclear cells (PBMCs), purchased from ATCC (Cat no. PCS-800–011, Lot no. 81215231, Manassas, VA, USA), were washed with ice-cold HBSS (ATCC 30–2213) containing 10% fetal bovine serum (FBS: ATCC 30–2020) and used for the experiment directly. The washed cells were suspended and maintained in RPMI media supplemented with 10% FBS, penicillin 100 U/mL, and streptomycin 100 µg/mL at 37 °C and 5% CO2. Approximately 5 × 10^5 cells were seeded into 24-well plates and allowed to equilibrate for 2 h. Pomalidomide or 3-MP, dissolved in 100% tissue culture grade dimethylsulfoxide (DMSO: Sigma Aldrich, St Louis, MO, USA), was then added to the wells. The final concentrations of drugs were 0.0, 0.6, 1.0, 10, 30, and 60 µM (n = 3–4 for each group). At 1 h after initiation of treatment, the cells were challenged with lipopolysaccharide (LPS, Sigma Aldrich, E.Coli 055:B5, Cat no. L4005-100MG, Lot no. 0000218759, Endotoxin Unit: 500,000 EU/mg, at a concentration of 10 ng/mL), and the media was collected after a further 24 h for evaluation of lactate dehydrogenase (LDH) activity as a marker of drug-induced cellular toxicity and concentrations of nitrite (In Vitro Toxicology Assay Kit, Lactic Dehydrogenase based, Promega, Cat no. G7891, Madison, WI, USA) (Griess Reagent System, Promega, Cat no. G2930) and TNF-α (human TNF-α ELISA MAX™ Deluxe Set Cat no. […]

[2] = target: T1, Serotonin 5-HT7A receptor (Homo sapiens, UniProt P34969); assay: PDSP radioligand binding; conditions: read-out: 3-MP concentration required to induce 50% inhibition of PDSP radioligand binding
T1 construct: NIMH Psychoactive Drug Screening Program (PDSP)
T1 sequence (P34969 1-445 isoform P34969-2): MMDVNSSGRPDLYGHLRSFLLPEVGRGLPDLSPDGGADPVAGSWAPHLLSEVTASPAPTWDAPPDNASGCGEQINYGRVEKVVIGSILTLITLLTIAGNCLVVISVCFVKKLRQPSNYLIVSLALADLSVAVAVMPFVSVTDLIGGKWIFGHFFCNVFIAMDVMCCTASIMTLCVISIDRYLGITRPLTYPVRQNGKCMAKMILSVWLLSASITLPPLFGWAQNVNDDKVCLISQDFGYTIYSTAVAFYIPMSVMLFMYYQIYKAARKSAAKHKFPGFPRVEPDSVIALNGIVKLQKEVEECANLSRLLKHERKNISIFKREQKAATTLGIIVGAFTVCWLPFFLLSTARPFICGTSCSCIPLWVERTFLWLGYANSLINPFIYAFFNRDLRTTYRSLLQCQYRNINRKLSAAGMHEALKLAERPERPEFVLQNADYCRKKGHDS
Experimental: (§1) To evaluate potential binding at classical neurological drug targets, 3-MP and 3,6’-DP were submitted to the National Institute on Mental Health (NIMH) Psychoactive Drug Screening Program (PDSP: Univ. N Carolina, Chapel Hill, NC, USA < https://pdspdb.unc.edu/pdspweb/ >) as powdered samples in the provided vials. The materials were then prepared at the PDSP in 10% DMSO, subjected to multiple assay screens, and processed as per the PDSP Assay Protocol Book (Version 3, March 2018). Compounds that exceeded an initial 10 uM binding threshold were then delegated for secondary dose–response analysis. This screen comprised a 45-target comprehensive panel of common brain receptor and transporter drug targets.

[3] = target: Benzodiazepine BZP receptor; assay: PDSP radioligand binding; conditions: read-out: 3-MP concentration required to induce 50% inhibition of PDSP radioligand binding
Experimental: as §1

[4] = target: Sigma 2 receptor (Rattus norvegicus, UniProt Q5U3Y7); assay: PDSP radioligand binding; conditions: read-out: 3-MP concentration required to induce 50% inhibition of PDSP radioligand binding
Sequence of Sigma 2 receptor (Q5U3Y7 whole entry): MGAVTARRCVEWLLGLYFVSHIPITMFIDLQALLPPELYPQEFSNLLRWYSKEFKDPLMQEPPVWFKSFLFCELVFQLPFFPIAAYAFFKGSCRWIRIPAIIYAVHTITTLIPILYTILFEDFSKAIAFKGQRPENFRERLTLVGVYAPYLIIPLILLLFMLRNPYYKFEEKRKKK
Experimental: as §1

[5] = target: Muscarinic M2 receptor (Homo sapiens, UniProt P08172); assay: PDSP radioligand binding; conditions: read-out: 3-MP concentration required to induce 50% inhibition of PDSP radioligand binding
Experimental: as §1

[6] = target: Dopamine D5 receptor (Homo sapiens, UniProt P21918); assay: PDSP radioligand binding; conditions: read-out: 3-MP concentration required to induce 50% inhibition of PDSP radioligand binding
Sequence of Dopamine D5 receptor (P21918 whole entry): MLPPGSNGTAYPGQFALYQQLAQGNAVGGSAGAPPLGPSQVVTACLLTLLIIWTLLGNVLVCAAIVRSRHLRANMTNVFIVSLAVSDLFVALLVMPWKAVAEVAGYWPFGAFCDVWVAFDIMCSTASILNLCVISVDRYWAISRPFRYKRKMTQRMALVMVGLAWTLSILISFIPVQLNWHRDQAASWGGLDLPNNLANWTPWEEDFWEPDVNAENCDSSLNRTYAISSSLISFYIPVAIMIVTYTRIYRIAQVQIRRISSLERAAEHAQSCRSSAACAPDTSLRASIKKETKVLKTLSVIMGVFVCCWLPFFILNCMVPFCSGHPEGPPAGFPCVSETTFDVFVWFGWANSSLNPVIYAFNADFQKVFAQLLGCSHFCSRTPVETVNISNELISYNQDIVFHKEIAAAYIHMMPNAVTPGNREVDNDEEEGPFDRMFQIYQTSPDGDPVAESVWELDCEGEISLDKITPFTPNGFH
Experimental: as §1

[7] = target: T2, Serotonin 5-HT1E receptor (Homo sapiens, UniProt P28566); assay: PDSP radioligand binding; conditions: read-out: 3-MP concentration required to induce 50% inhibition of PDSP radioligand binding
T2 construct: NIMH Psychoactive Drug Screening Program (PDSP)
T2 sequence (P28566 whole entry): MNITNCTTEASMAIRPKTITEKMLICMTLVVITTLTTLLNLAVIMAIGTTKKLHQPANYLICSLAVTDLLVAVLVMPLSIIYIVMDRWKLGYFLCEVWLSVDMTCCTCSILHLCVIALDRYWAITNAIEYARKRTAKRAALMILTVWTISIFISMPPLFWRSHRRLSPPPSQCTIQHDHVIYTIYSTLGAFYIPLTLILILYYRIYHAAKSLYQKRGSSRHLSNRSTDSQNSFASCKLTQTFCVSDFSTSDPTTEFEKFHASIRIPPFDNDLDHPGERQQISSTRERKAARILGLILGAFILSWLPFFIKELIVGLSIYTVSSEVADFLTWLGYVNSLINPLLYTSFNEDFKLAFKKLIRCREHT
Experimental: as §1

[8] = target: T3, Adrenergic Alpha1A receptor (Homo sapiens, UniProt P35348); assay: PDSP radioligand binding; conditions: read-out: 3-MP concentration required to induce 50% inhibition of PDSP radioligand binding
T3 construct: NIMH Psychoactive Drug Screening Program (PDSP)
T3 sequence (P35348 whole entry): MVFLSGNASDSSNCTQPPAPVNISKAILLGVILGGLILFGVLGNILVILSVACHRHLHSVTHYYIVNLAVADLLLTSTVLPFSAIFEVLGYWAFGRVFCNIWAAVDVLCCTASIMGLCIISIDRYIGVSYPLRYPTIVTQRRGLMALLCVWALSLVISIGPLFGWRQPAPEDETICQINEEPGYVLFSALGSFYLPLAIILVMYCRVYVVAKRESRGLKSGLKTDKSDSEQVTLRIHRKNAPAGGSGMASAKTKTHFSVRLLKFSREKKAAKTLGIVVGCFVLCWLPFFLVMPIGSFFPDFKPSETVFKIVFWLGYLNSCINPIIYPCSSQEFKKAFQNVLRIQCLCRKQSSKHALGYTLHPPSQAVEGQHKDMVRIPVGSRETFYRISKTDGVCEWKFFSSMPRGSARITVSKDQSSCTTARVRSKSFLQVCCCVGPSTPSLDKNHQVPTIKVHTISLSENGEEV
Experimental: as §1

[9] = target: T4, Serotonin 5-HT1D receptor (Homo sapiens, UniProt P28221); assay: PDSP radioligand binding; conditions: read-out: 3-MP concentration required to induce 50% inhibition of PDSP radioligand binding
T4 construct: NIMH Psychoactive Drug Screening Program (PDSP)
Experimental: as §1

[10] = target: Muscarinic M3 receptor (Homo sapiens, UniProt P20309); assay: PDSP radioligand binding; conditions: read-out: 3-MP concentration required to induce 50% inhibition of PDSP radioligand binding
Sequence of Muscarinic M3 receptor (P20309 whole entry): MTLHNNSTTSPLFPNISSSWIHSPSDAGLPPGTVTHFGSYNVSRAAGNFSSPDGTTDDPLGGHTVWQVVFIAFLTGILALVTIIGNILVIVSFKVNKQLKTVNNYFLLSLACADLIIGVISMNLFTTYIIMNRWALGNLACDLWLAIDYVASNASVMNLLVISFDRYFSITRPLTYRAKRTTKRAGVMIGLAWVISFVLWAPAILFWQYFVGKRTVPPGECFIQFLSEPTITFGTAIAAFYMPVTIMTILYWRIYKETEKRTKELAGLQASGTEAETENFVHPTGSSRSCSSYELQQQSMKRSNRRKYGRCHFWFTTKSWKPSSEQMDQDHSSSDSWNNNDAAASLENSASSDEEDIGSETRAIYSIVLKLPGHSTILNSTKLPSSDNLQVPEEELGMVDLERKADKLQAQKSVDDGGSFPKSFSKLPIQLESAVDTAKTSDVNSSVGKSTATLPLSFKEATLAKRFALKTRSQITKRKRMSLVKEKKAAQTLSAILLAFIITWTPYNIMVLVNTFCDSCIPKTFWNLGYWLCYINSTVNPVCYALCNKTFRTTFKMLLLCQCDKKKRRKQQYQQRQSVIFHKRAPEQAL
Experimental: as §1

[11] = target: T5, Adrenergic Alpha1D receptor (Homo sapiens, UniProt P25100); assay: PDSP radioligand binding; conditions: read-out: 3-MP concentration required to induce 50% inhibition of PDSP radioligand binding
T5 construct: NIMH Psychoactive Drug Screening Program (PDSP)
Experimental: as §1

[12] = target: T6, Serotonin 5-HT5A receptor (Homo sapiens, UniProt P47898); assay: PDSP radioligand binding; conditions: read-out: 3-MP concentration required to induce 50% inhibition of PDSP radioligand binding
T6 construct: NIMH Psychoactive Drug Screening Program (PDSP)
Experimental: as §1

[13] = target: Muscarinic M5 receptor (Homo sapiens, UniProt P08912); assay: PDSP radioligand binding; conditions: read-out: 3-MP concentration required to induce 50% inhibition of PDSP radioligand binding
Experimental: as §1

[14] = target: T7, Adrenergic Beta1 receptor (Homo sapiens, UniProt P08588); assay: PDSP radioligand binding; conditions: read-out: 3-MP concentration required to induce 50% inhibition of PDSP radioligand binding
T7 construct: NIMH Psychoactive Drug Screening Program (PDSP)
Experimental: as §1

[15] = target: T8, Dopamine D1 receptor (Homo sapiens, UniProt P21728); assay: PDSP radioligand binding; conditions: read-out: 3-MP concentration required to induce 50% inhibition of PDSP radioligand binding
T8 construct: NIMH Psychoactive Drug Screening Program (PDSP)
Experimental: as §1

[16] = target: Dopamine D4 receptor (Homo sapiens, UniProt P21917); assay: PDSP radioligand binding; conditions: read-out: 3-MP concentration required to induce 50% inhibition of PDSP radioligand binding
Sequence of Dopamine D4 receptor (P21917 whole entry): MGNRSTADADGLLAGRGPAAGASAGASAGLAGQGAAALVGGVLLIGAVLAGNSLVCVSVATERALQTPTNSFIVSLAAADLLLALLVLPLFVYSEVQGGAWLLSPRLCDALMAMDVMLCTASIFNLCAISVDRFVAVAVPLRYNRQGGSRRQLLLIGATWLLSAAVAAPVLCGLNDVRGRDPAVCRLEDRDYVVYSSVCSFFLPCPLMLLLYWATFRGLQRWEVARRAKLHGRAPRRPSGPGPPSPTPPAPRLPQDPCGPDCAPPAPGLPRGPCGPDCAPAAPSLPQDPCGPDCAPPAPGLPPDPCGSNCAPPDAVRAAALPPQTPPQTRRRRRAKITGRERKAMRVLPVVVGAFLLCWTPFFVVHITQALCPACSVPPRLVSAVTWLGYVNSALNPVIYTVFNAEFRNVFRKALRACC
Experimental: as §1

[17] = target: GABAA receptor; assay: PDSP radioligand binding; conditions: read-out: 3-MP concentration required to induce 50% inhibition of PDSP radioligand binding
Experimental: as §1

[18] = target: T9, Serotonin 5-HT2C receptor (Homo sapiens, UniProt P28335); assay: PDSP radioligand binding; conditions: read-out: 3-MP concentration required to induce 50% inhibition of PDSP radioligand binding
T9 construct: NIMH Psychoactive Drug Screening Program (PDSP)
Experimental: as §1

[19] = target: Muscarinic M4 receptor (Homo sapiens, UniProt P08173); assay: PDSP radioligand binding; conditions: read-out: 3-MP concentration required to induce 50% inhibition of PDSP radioligand binding
Experimental: as §1

[20] = target: T10, Serotonin 5-HT3 receptor (Homo sapiens, UniProt P46098); assay: PDSP radioligand binding; conditions: read-out: 3-MP concentration required to induce 50% inhibition of PDSP radioligand binding
T10 construct: NIMH Psychoactive Drug Screening Program (PDSP)
T10 sequence (P46098 24-478): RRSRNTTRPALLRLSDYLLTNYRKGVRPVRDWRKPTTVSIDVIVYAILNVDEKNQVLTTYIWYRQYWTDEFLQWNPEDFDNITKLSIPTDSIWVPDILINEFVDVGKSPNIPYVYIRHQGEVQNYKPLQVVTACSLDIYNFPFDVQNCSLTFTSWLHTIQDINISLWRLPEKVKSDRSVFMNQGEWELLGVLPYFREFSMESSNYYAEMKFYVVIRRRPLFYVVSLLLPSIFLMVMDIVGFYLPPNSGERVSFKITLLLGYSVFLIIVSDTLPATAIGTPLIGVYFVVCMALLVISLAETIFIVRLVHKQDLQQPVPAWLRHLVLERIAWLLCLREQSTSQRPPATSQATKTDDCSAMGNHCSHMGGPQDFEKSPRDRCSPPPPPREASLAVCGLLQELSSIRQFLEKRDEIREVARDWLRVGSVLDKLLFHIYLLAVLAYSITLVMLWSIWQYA
Experimental: as §1

[21] = target: Histamine H4 receptor (Homo sapiens, UniProt Q9H3N8); assay: PDSP radioligand binding; conditions: read-out: 3-MP concentration required to induce 50% inhibition of PDSP radioligand binding
Experimental: as §1

[22] = target: T11, Adrenergic Beta3 receptor (Homo sapiens, UniProt P13945); assay: PDSP radioligand binding; conditions: read-out: 3-MP concentration required to induce 50% inhibition of PDSP radioligand binding
T11 construct: NIMH Psychoactive Drug Screening Program (PDSP)
T11 sequence (P13945 whole entry): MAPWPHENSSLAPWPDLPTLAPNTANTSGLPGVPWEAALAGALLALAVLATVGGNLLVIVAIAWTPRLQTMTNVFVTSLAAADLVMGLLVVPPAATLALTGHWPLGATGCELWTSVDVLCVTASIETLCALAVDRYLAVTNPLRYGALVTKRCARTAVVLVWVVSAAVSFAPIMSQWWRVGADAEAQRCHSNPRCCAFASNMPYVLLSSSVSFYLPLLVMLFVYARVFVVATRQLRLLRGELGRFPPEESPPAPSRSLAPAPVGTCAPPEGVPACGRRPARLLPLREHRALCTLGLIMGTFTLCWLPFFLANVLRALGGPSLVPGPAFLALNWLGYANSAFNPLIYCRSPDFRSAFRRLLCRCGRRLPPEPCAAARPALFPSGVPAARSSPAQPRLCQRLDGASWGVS
Experimental: as §1

[23] = target: T12, Serotonin 5-HT1B receptor (Homo sapiens, UniProt P28222); assay: PDSP radioligand binding; conditions: read-out: 3-MP concentration required to induce 50% inhibition of PDSP radioligand binding
T12 construct: NIMH Psychoactive Drug Screening Program (PDSP)
T12 sequence (P28222 whole entry): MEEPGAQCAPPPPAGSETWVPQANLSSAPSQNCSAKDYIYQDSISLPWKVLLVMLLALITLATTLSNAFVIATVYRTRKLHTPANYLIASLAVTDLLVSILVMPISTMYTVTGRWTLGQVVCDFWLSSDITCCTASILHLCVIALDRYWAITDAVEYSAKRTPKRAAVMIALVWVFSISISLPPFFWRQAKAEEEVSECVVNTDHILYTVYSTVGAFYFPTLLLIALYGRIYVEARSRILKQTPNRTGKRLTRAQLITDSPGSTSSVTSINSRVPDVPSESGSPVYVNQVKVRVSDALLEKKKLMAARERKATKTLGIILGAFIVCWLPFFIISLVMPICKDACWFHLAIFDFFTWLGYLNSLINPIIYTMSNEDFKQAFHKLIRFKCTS
Experimental: as §1

[24] = target: NET transporter (Homo sapiens, UniProt P23975); assay: PDSP radioligand binding; conditions: read-out: 3-MP concentration required to induce 50% inhibition of PDSP radioligand binding
Experimental: as §1

[25] = target: κ-opioid receptor (Homo sapiens, UniProt P41145); assay: PDSP radioligand binding; conditions: read-out: 3-MP concentration required to induce 50% inhibition of PDSP radioligand binding
Experimental: as §1

[26] = target: T13, Dopamine D2 receptor (Homo sapiens, UniProt P14416); assay: PDSP radioligand binding; conditions: read-out: 3-MP concentration required to induce 50% inhibition of PDSP radioligand binding
T13 construct: NIMH Psychoactive Drug Screening Program (PDSP)
T13 sequence (P14416 whole entry): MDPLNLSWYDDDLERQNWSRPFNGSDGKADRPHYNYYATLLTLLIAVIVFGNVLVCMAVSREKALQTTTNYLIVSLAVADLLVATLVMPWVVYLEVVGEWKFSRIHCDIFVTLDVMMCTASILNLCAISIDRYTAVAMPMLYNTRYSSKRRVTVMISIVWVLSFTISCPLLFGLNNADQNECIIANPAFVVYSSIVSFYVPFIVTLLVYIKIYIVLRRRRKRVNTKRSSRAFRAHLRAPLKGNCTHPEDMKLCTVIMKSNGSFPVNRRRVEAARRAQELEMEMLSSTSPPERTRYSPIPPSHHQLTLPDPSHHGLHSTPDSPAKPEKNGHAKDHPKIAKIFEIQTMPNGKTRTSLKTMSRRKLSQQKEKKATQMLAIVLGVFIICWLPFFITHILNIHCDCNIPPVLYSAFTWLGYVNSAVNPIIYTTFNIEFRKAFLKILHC
Experimental: as §1

[27] = target: DAT transporter (Homo sapiens, UniProt Q01959); assay: PDSP radioligand binding; conditions: read-out: 3-MP concentration required to induce 50% inhibition of PDSP radioligand binding
Experimental: as §1

[28] = target: T14, Serotonin 5-HT2B receptor (Homo sapiens, UniProt P41595); assay: PDSP radioligand binding; conditions: read-out: 3-MP concentration required to induce 50% inhibition of PDSP radioligand binding
T14 construct: NIMH Psychoactive Drug Screening Program (PDSP)
Experimental: as §1

[29] = target: μ-opioid receptor (Homo sapiens, UniProt P35372); assay: PDSP radioligand binding; conditions: read-out: 3-MP concentration required to induce 50% inhibition of PDSP radioligand binding
Experimental: as §1

Question: What does the source list for `Nc1cccc2c1C(=S)N(C1CCC(=O)NC1=O)C2=O` (centres unmarked) [3-MP, 3-Monothiopomalidomide]?
Answer: LDH media levels [1]: without elevating; IC50 [2]: > 10 µM; IC50 [3]: > 10 µM; IC50 [4]: > 10 µM; IC50 [5]: > 10 µM; IC50 [6]: > 10 µM; IC50 [7]: > 10 µM; IC50 [8]: > 10 µM; IC50 [9]: > 10 µM; IC50 [10]: > 10 µM; IC50 [11]: > 10 µM; IC50 [12]: > 10 µM; IC50 [13]: > 10 µM; IC50 [14]: > 10 µM; IC50 [15]: > 10 µM; IC50 [16]: > 10 µM; IC50 [17]: > 10 µM; IC50 [18]: > 10 µM; IC50 [19]: > 10 µM; IC50 [20]: > 10 µM; IC50 [21]: > 10 µM; IC50 [22]: > 10 µM; IC50 [23]: > 10 µM; IC50 [24]: > 10 µM; IC50 [25]: > 10 µM; IC50 [26]: > 10 µM; IC50 [27]: > 10 µM; IC50 [28]: > 10 µM; IC50 [29]: > 10 µM
